Results reported in patent US20030220254A1, “Composition and method for preparation of an oral dual controlled release formulation of a protein and inhibitor” (TEXAS TECH UNIVERSITY SYSTEM, priority 2002, published 2003).

What was measured:
trypsin = target: T1, trypsin (Bos taurus, UniProt P00760); experiment: Stability of sCT in the presence of trypsin and protease inhibitors; format: biochemical; parameters: half-life: dose or concentration left out as unconfirmed
T1 construct: gene PRSS1
T1 sequence (P00760 24-246): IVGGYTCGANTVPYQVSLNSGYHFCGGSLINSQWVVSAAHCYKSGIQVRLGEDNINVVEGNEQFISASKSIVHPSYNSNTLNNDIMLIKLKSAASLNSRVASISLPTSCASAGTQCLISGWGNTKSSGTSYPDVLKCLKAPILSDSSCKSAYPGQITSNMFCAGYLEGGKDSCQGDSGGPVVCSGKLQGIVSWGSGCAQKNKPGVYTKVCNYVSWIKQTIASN
Protocol: (§1) sCT solutions (50 μM) were incubated at 37° C. in 50 mM Tris buffer containing 0.1 mM calcium chloride (pH 8.0). Degradation profiles generated in the presence of 0.5 μM trypsin and 0.1 μM α-chymotrypsin served as controls. The concentrations were selected on the basis of a reported study (Schilling R. J. and Mitra A. K. 1991). DkOVM and TkOVM were evaluated at different enzyme-to-inhibitor ratios to evaluate their inhibition of sCT degradation. CkOVM and aprotinin were used at 1:1 enzyme-to-inhibitor ratio in order to compare the efficacy of various protease inhibitors used. sCT and enzyme solutions were incubated for 15 min at 37° C. before starting the experiments. Samples were taken after 0, 5, 15, 30 and 60 min and immediately diluted with cold 1% trifluoroacetic acid (TFA) to reduce the pH to 2.5. The samples were analysed at 4° C. by HPLC given below. Plots of sCT remaining against time were generated. 160 values (amount of sCT (%) remaining after 60 min) were used to compare the efficacy of the ovomucoids. Similar studies were performed with aprotinin. The study was also conducted by incubating 50 μM sCT solutions with 0.5 μM trypsin and 0.1 μM α-chymotrypsin added together and the efficacy of TkOVM was evaluated at various ratios.
(§2) sCT was analyzed by means of our validated HPLC method (Shah R B, et al., 2003). Briefly, a computer controlled Varian Chromatography workstation consisting of the following components was used: Two Dynamax SD-200 pumps, an AI-200A autosampler fitted with a 100 μl injection loop, a Dynamax UV-1 detector and Star 5.3 chromatography software. Room temperature was maintained for the column and chromatographic separations were carried out on a C-18 Vydac 218MS54 column (5 μm, 4.6×250 mm) with a pore size of 300 Å. 50 μl of samples were injected into the column which were analyzed by the reversed phase HPLC method. The mobile phase consisted of 0.05% v/v TFA-Water (A) and 0.05% v/v TFA-Acetonitrile (B). The gradient conditions were 20-35% B for 10 min, 35-37% B from 10th to 20th min and 37-20% B from 20th to 25th min at a flow rate of 1 ml/min. […] Concentrations of sCT were quantified from integrated peak areas and calculated by interpolation from an according standard curve.

α-chymotrypsin = α-chymotrypsin (Bos taurus, UniProt P00766); experiment: Stability of sCT in the presence of α-chymotrypsin and protease inhibitors; format: biochemical; parameters: half-life: dose or concentration left out as unconfirmed; conditions: no inhibitor
Protocol: as §1, §2

[1] = system: trypsin and α-chymotrypsin; experiment: Stability of sCT with trypsin and α-chymotrypsin added together, with TkOVM; format: biochemical; conditions: pH 8, no inhibitor, read-out: Half-life (min) of hydrolysis of sCT
Protocol: as §1, with “Plots of sCT remaining against time were generated. 160 values (amount of sCT (%) remaining after 60 min) were used to compare the efficacy of the ovomucoids. Similar studies were performed with aprotinin.” left out
sCT was analyzed by means of our validated HPLC method (Shah R B, et al., 2003). […] 50 μl of samples were injected into the column which were analyzed by the reversed phase HPLC method. […] Concentrations of sCT were quantified from integrated peak areas and calculated by interpolation from an according standard curve.

Caco-2 cell homogenate = experiment: Stability of sCT in Caco-2 cell homogenate; format: in vitro ADME, Human; conditions: Caco-2 homogenate, sCT 50 μM
Protocol: Human colon adenocarcinoma (Caco-2) cells were cultured, in an atmosphere of 5% CO2 at 37° C. in T-75 tissue culture flasks using DMEM supplemented with 10% FBS, 100 U/ml penicillin, 100 μg/ml streptomycin, 1.25 ml human Transferrin. The medium was changed every other day until the flasks reached 90% confluence (3-4 days). Caco-2 cells of less than 20 passages were used. Caco-2 homogenate was prepared according to the method of Augustijns et al. with slight modification. Briefly, the Caco-2 monolayer was washed three times with ice-cold PBS (pH 7.4). The cells were scraped off with a tissue culture scraper on ice and homogenized in 1 ml ice-cold PBS using a mechanical homogenizer. The mixture was centrifuged at 12,000 rpm for 10 min at 4° C. The resultant supernatant was used as Caco-2 homogenate. The protein content was determined using BCA assay. Tryspin and chymotrypsin assay was done for the homogenate as described below.
(§3) The degradation of sCT was studied by incubating the sCT solution to a final concentration of 50 μM with 900 μl Caco-2 cell and goat intestinal homogenates. The samples were withdrawn at 0 and 60 min and were diluted immediately with cold TFA 1%. The samples containing intestinal homogenate were centrifuged at 5000 g for 10 min to remove precipitated proteins. The supernatant was injected into HPLC to determine the sCT content.

in vitro = in vitro ADME; conditions: goat, real gastrointestinal fluid or homogenate, pH 7.4
Protocol: Goat intestinal homogenate was prepared using a reported method for preparation of intestinal homogenate with minor modifications (Yamamoto et al., 1990). Briefly, fresh goat intestinal tissues, obtained from a local slaughter house, were washed with phosphate buffered saline (PBS) pH 7.4 at 4° C. and stored at −80° C. Immediately before each experiment, specimens were thawed at room temperature and then were washed again with PBS at 4° C. 25 g of tissue was cut from the small intestinal region and was homogenized in 10 ml PBS at 4° C. by use of a mechanical homogenizer for 5 min. The homogenate was centrifuged at 5000 g in a refrigerated (4° C.) centrifuge for 10 min to remove cellular and nuclear debris. The resulting supernatant was assayed for protein content by BCA assay with bovine serum albumin as the standard. The supernatant was also assayed for trypsin and chymotrypsin content.
as §3

In the case of `CC(C)C[C@H](NC(=O)[C@H](CCCCN)NC(=O)CNC(=O)[C@H](CC(C)C)NC(=O)[C@@H](NC(=O)[C@@H]1CSSC[C@H](N)C(=O)N[C@@H](CO)C(=O)N[C@@H](CC(N)=O)C(=O)N[C@@H](CC(C)C)C(=O)N[C@@H](CO)C(=O)N[C@@H]([C@@H](C)O)C(=O)N1)C(C)C)C(=O)N[C@@H](CO)C(=O)N[C@@H](CCC(N)=O)C(=O)N[C@@H](CCC(=O)O)C(=O)N[C@@H](CC(C)C)C(=O)N[C@@H](Cc1c[nH]cn1)C(=O)N[C@@H](CCCCN)C(=O)N[C@@H](CC(C)C)C(=O)N[C@@H](CCC(N)=O)C(=O)N[C@H](C(=O)N[C@@H](Cc1ccc(O)cc1)C(=O)N1CCC[C@H]1C(=O)N[C@@H](CCCNC(=N)N)C(=O)N[C@H](C(=O)N[C@@H](CC(N)=O)C(=O)N[C@H](C(=O)NCC(=O)N[C@@H](CO)C(=O)NCC(=O)N[C@H](C(=O)N1CCC[C@H]1C(N)=O)[C@@H](C)O)[C@@H](C)O)[C@@H](C)O)[C@@H](C)O` [sCT, salmon calcitonin], the “Amount (%) of sCT remaining at 60 min (I60)” value (“Amount (%) of sCT remaining” below) (trypsin; control, sCT 50 μM without enzyme) is reported as 103.76 ± 3.10%, the half-life (trypsin; pH 8, trypsin, no inhibitor, read-out: Half-life (min) of hydrolysis of sCT) is reported as 1.51 min and the “Amount (%) of sCT remaining” value (trypsin; trypsin 0.5 μM, no inhibitor) is reported as 0.00 ± 0.00%. For the same compound, the “Amount (%) of sCT remaining” value (α-chymotrypsin; chymotrypsin 0.1 μM) was 16.18 ± 0.48%, the half-life (α-chymotrypsin; pH 8, α-chymotrypsin, read-out: Half-life (min) of hydrolysis of sCT) was 22.4 min and the half-life at 50 μM [1] was 0.77 min. The “Amount (%) of sCT remaining” value (Caco-2 cell homogenate) was 81.46 ± 10.89% and the remaining at 1 h, 50 μM (in vitro) was 91.7 ± 17.6%.
